# In US11377442B2, “Small molecule agonists and antagonists of NR2F6 activity” (ZANDER THERAPEUTICS, INC., priority 2016, dated 2022):
# Where “and” joins values, the source holds several entries; their conditions need not be identical. Equal values may be shown once. Read-outs that look alike come from different tables or passages of the source.
# Columns and labels:
# Format in all cases: cell-based
# [1] = target: T1, NR2F6 (Homo sapiens, UniProt P10588); experiment: NR2F6 agonist screening, Firefly signal cmpd/DMSO; conditions: for Activity, cmpd/DMSO: Table 31
# T1 construct: expressed in transfected cells; also transient transfection
# T1 sequence (P10588 1-404): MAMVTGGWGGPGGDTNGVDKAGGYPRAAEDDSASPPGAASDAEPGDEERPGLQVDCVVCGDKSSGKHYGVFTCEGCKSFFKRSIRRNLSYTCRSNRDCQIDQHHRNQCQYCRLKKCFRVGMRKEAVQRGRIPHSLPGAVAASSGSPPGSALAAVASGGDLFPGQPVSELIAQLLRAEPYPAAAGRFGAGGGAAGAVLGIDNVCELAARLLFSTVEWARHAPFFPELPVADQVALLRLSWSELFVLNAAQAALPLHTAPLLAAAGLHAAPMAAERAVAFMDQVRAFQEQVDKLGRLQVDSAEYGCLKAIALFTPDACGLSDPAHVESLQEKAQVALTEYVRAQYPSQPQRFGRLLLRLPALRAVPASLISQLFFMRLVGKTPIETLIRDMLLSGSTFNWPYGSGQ
# [2] = target: T2, NR2F6 LBD (Homo sapiens, UniProt P10588); experiment: NR2F6 LBD transient transfection
# T2 construct: expressed in transfected cells
# T2 sequence (P10588 165-393 limits assumed): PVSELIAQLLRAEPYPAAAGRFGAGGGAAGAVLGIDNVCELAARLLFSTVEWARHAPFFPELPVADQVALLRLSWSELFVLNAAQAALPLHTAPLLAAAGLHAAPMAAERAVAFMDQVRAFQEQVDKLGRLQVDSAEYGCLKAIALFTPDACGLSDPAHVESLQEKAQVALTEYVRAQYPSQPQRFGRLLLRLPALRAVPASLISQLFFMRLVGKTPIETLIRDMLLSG
# Outline: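 LBD-transfected cells treated at 40, 10, 2 and 0.5 μM (4 replicates); cytotoxicity measured in parallel, normalized to DMSO (0%) and zero signal (100%). Higher concentrations excluded where signal loss reflected toxicity.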
# [3] = system: Renilla; experiment: Renilla signal in NR2F6 agonist screening, cmpd/DMSO; conditions: Renilla
# [4] = system: HEK293 pGL4; experiment: Firefly_pGL signal, cmpd/DMSO (pGL4 control cells); conditions: Homo sapiens
# [5] = system: Renilla; experiment: Renilla signal, LBD, cmpd/DMSO (NR2F6 LBD transfected cells)
# [6] = read-out: Renilla F4, cmpd/DMSO (mean)
# [7] = F4, read-out: Renilla, F4, cmpd/DMSO (mean)
# [8] = F4, 1% FBS, read-out: Renilla, F4, 1% FBS, cmpd/DMSO (mean)
# [9] = F4, 10% FBS, read-out: Renilla, F4, 10% FBS, cmpd/DMSO (mean)
# [10] = HEK293, 0.5 uM, pGL4, read-out: Firefly pGL4, cmpd/DMSO (mean)
# [11] = HEK293, 2 uM, pGL4, read-out: Firefly pGL4, cmpd/DMSO (mean)
# [12] = HEK293, 10 uM, pGL4, read-out: Firefly pGL4, cmpd/DMSO (mean)
# [13] = HEK293, 40 uM, pGL4, read-out: Firefly pGL4, cmpd/DMSO (mean)
# [14] = HEK293, pGL4, 1% FBS, 0.5 uM, read-out: Firefly, pGL4, 1% FBS, cmpd/DMSO (mean)
# [15] = HEK293, pGL4, 1% FBS, 2 uM, read-out: Firefly, pGL4, 1% FBS, cmpd/DMSO (mean)
# [16] = HEK293, pGL4, 1% FBS, 10 uM, read-out: Firefly, pGL4, 1% FBS, cmpd/DMSO (mean)
# [17] = HEK293, pGL4, 1% FBS, 40 uM, read-out: Firefly, pGL4, 1% FBS, cmpd/DMSO (mean)
# [18] = HEK293, pGL4, 10% FBS, 0.5 uM, read-out: Firefly, pGL4, 10% FBS, cmpd/DMSO (mean)
# [19] = HEK293, pGL4, 10% FBS, 2 uM, read-out: Firefly, pGL4, 10% FBS, cmpd/DMSO (mean)
# [20] = HEK293, pGL4, 10% FBS, 10 uM, read-out: Firefly, pGL4, 10% FBS, cmpd/DMSO (mean)
# [21] = HEK293, pGL4, 10% FBS, 40 uM, read-out: Firefly, pGL4, 10% FBS, cmpd/DMSO (mean)
compound,measurement,setting,value
O=S1(=O)C[C@H](N2CCCC2)[C@@H](S(=O)(=O)c2cccs2)C1 [Compound D104],"Firefly F4, cmpd/DMSO (mean)",[1]; 0.5 uM,2.1
same,"Firefly F4, cmpd/DMSO (mean)","[1]; 0.5 uM, F4",1.7
same,"Firefly F4, cmpd/DMSO (mean)",[1]; 2 uM,4.5
same,"Firefly F4, cmpd/DMSO (mean)","[1]; 2 uM, F4",2.4
same,"Firefly F4, cmpd/DMSO (mean)",[1]; 10 uM,4.3
same,"Firefly F4, cmpd/DMSO (mean)","[1]; 10 uM, F4",6.2
same,"Firefly F4, cmpd/DMSO (mean)",[1]; 40 uM,1.0
same,"Firefly F4, cmpd/DMSO (mean)","[1]; 40 uM, F4",0.8
same,"F4, Firefly/Renilla for S/B(F4) > 3","[1]; 1% FBS, 10 uM",3.5 and 2.6
same,"F4, Firefly/Renilla for S/B(F4) > 3","[1]; 10% FBS, 10 uM",4.5 and 4.9
same,"Firefly, F4/pGL4 for S/B(F4) > 3","[1]; 10% FBS, 10 uM",4.2 and 4.3
same,"Firefly, F4, 1% FBS, cmpd/DMSO (mean)","[1]; F4, 1% FBS, 0.5 uM",0.9
same,"Firefly, F4, 1% FBS, cmpd/DMSO (mean)","[1]; F4, 1% FBS, 2 uM",1.9 and 1.6
same,"Firefly, F4, 1% FBS, cmpd/DMSO (mean)","[1]; F4, 1% FBS, 10 uM",8.5 and 5.1
same,"Firefly, F4, 1% FBS, cmpd/DMSO (mean)","[1]; F4, 1% FBS, 40 uM",0.7 and 0.4
same,"Firefly, F4, 10% FBS, cmpd/DMSO (mean)","[1]; F4, 10% FBS, 0.5 uM",0.8 and 1.3
same,"Firefly, F4, 10% FBS, cmpd/DMSO (mean)","[1]; F4, 10% FBS, 2 uM",1.4 and 1.5
same,"Firefly, F4, 10% FBS, cmpd/DMSO (mean)","[1]; F4, 10% FBS, 10 uM",11 and 13
same,"Firefly, F4, 10% FBS, cmpd/DMSO (mean)","[1]; F4, 10% FBS, 40 uM",1.4 and 1.0
same,"Activity, cmpd/DMSO",[1],7.1
same,"Firefly LBD, cmpd/DMSO (mean)",[2]; 0.5 uM,1.3
same,"Firefly LBD, cmpd/DMSO (mean)","[2]; 0.5 uM, LBD",1.3
same,"Firefly LBD, cmpd/DMSO (mean)",[2]; 2 uM,2.9
same,"Firefly LBD, cmpd/DMSO (mean)","[2]; 2 uM, LBD",1.7
same,"Firefly LBD, cmpd/DMSO (mean)",[2]; 10 uM,1.2
same,"Firefly LBD, cmpd/DMSO (mean)","[2]; 10 uM, LBD",3.3
same,"Firefly LBD, cmpd/DMSO (mean)",[2]; 40 uM,0.2
same,"Firefly LBD, cmpd/DMSO (mean)","[2]; 40 uM, LBD",0.6
same,fold induction at 0.5 µM,[3]; [6],1.2
same,fold induction at 2 µM,[3]; [6],2
same,fold induction at 10 µM,[3]; [6],1.7
same,fold induction at 40 µM,[3]; [6],0.3
same,fold induction at 0.5 µM,[3]; [7],1.1
same,fold induction at 2 µM,[3]; [7],1.2
same,fold induction at 10 µM,[3]; [7],1.6
same,fold induction at 40 µM,[3]; [7],0.3
same,fold induction at 0.5 µM,[3]; [8],1.1
same,fold induction at 2 µM,[3]; [8],1.4
same,fold induction at 10 µM,[3]; [8],2.4
same,fold induction at 40 µM,[3]; [8],1
same,fold induction at 0.5 µM,[3]; [9],1
same,fold induction at 2 µM,[3]; [9],1.3
same,fold induction at 10 µM,[3]; [9],2.5
same,fold induction at 40 µM,[3]; [9],2.2
same,fold induction at 0.5 µM,[4]; [10],1.3
same,fold induction at 0.5 µM,"[4]; HEK293, 0.5 uM, read-out: Firefly pGL4, cmpd/DMSO (mean)",1.2
same,fold induction at 2 µM,[4]; [11],1.4
same,fold induction at 2 µM,"[4]; HEK293, 2 uM, read-out: Firefly pGL4, cmpd/DMSO (mean)",1.8
same,fold induction at 10 µM,[4]; [12],4
same,fold induction at 10 µM,"[4]; HEK293, 10 uM, read-out: Firefly pGL4, cmpd/DMSO (mean)",2.4
same,fold induction at 40 µM,[4]; [13],0.7
same,fold induction at 40 µM,"[4]; HEK293, 40 uM, read-out: Firefly pGL4, cmpd/DMSO (mean)",0.7
same,fold induction at 0.5 µM,[4]; [14],1
same,fold induction at 2 µM,[4]; [15],1
same,fold induction at 10 µM,[4]; [16],1.5
same,fold induction at 40 µM,[4]; [17],0.6
same,fold induction at 0.5 µM,[4]; [18],1.1
same,fold induction at 2 µM,[4]; [19],1.7
same,fold induction at 10 µM,[4]; [20],2.7
same,fold induction at 40 µM,[4]; [21],0.5
same,"Renilla LBD, cmpd/DMSO (mean)",[5]; 0.5 uM,1.1
same,"Renilla LBD, cmpd/DMSO (mean)",[5]; 2 uM,1.1
same,"Renilla LBD, cmpd/DMSO (mean)",[5]; 10 uM,0.6
same,"Renilla LBD, cmpd/DMSO (mean)",[5]; 40 uM,0.2
CCCCN(C)[C@H]1CS(=O)(=O)C[C@@H]1S(=O)(=O)c1ccc(Cl)cc1 [Compound D132],"Firefly F4, cmpd/DMSO (mean)","[1]; 0.5 uM, F4",1.5
same,"Firefly F4, cmpd/DMSO (mean)","[1]; 2 uM, F4",1.9
same,"Firefly F4, cmpd/DMSO (mean)","[1]; 10 uM, F4",5.5
same,"Firefly F4, cmpd/DMSO (mean)","[1]; 40 uM, F4",1.1
same,"F4, Firefly/Renilla for S/B(F4) > 3","[1]; 1% FBS, 10 uM",3.0
same,"Firefly, F4/pGL4 for S/B(F4) > 3","[1]; 1% FBS, 10 uM",1.9
same,"F4, Firefly/Renilla for S/B(F4) > 3","[1]; 10% FBS, 10 uM",2.0
same,"Firefly, F4/pGL4 for S/B(F4) > 3","[1]; 10% FBS, 10 uM",1.2
same,"F4, Firefly/Renilla for S/B(F4) > 3","[1]; 10% FBS, 40 uM",1.8
same,"Firefly, F4/pGL4 for S/B(F4) > 3","[1]; 10% FBS, 40 uM",3.4
same,"Firefly, F4, 1% FBS, cmpd/DMSO (mean)","[1]; F4, 1% FBS, 0.5 uM",0.7
same,"Firefly, F4, 1% FBS, cmpd/DMSO (mean)","[1]; F4, 1% FBS, 2 uM",1.3
same,"Firefly, F4, 1% FBS, cmpd/DMSO (mean)","[1]; F4, 1% FBS, 10 uM",5.0
same,"Firefly, F4, 1% FBS, cmpd/DMSO (mean)","[1]; F4, 1% FBS, 40 uM",0.5
same,"Firefly, F4, 10% FBS, cmpd/DMSO (mean)","[1]; F4, 10% FBS, 0.5 uM",0.9
same,"Firefly, F4, 10% FBS, cmpd/DMSO (mean)","[1]; F4, 10% FBS, 2 uM",1.4
same,"Firefly, F4, 10% FBS, cmpd/DMSO (mean)","[1]; F4, 10% FBS, 10 uM",3.3
same,"Firefly, F4, 10% FBS, cmpd/DMSO (mean)","[1]; F4, 10% FBS, 40 uM",5.4
same,"Activity, cmpd/DMSO",[1],6.6
same,"Firefly LBD, cmpd/DMSO (mean)","[2]; 0.5 uM, LBD",1.1
same,"Firefly LBD, cmpd/DMSO (mean)","[2]; 2 uM, LBD",2.1
same,"Firefly LBD, cmpd/DMSO (mean)","[2]; 10 uM, LBD",4.3
same,"Firefly LBD, cmpd/DMSO (mean)","[2]; 40 uM, LBD",0.4
same,fold induction at 0.5 µM,[3]; [7],1
same,fold induction at 2 µM,[3]; [7],1.2
same,fold induction at 10 µM,[3]; [7],1.7
same,fold induction at 40 µM,[3]; [7],1.3
same,fold induction at 0.5 µM,[3]; [8],1.1
same,fold induction at 2 µM,[3]; [8],1.3
same,fold induction at 10 µM,[3]; [8],1.7
same,fold induction at 40 µM,[3]; [8],1.7
same,fold induction at 0.5 µM,[3]; [9],0.9
same,fold induction at 2 µM,[3]; [9],1.1
same,fold induction at 10 µM,[3]; [9],1.6
same,fold induction at 40 µM,[3]; [9],3
same,fold induction at 0.5 µM,[4]; [10],1.6
same,fold induction at 2 µM,[4]; [11],1.6
same,fold induction at 10 µM,[4]; [12],4.9
same,fold induction at 40 µM,[4]; [13],0.5
same,fold induction at 0.5 µM,[4]; [14],1
same,fold induction at 2 µM,[4]; [15],1.6
same,fold induction at 10 µM,[4]; [16],2.6
same,fold induction at 40 µM,[4]; [17],0.8
same,fold induction at 0.5 µM,[4]; [18],0.9
same,fold induction at 2 µM,[4]; [19],1.3
same,fold induction at 10 µM,[4]; [20],2.7
same,fold induction at 40 µM,[4]; [21],1.6
